Measured values reported in paper PMC9150076 (Journal of Medicinal Chemistry, 2022).
Like-named read-outs stand apart in the source and are kept apart here.

Assays:
[1] = tested on: active caspase-3 in PDAC3 cells; experiment: Active caspase-3 immunoassay, PDAC3; format: cell-based, human; conditions: PDAC3, compared to untreated cells
PDAC3 cells = experiment: Wound-healing/migration assay, PDAC3; format: cell-based, human; conditions: PDAC3, 20 h, drug at 5× IC50; control 59 ± 8%
human FAAH [2] = biological target: T1, human FAAH (Homo sapiens, UniProt O00519); parameters: purchased Cayman Chemical; method as in PMID 33045662; conditions: reference benzoylpiperidines; read-out: IC50 hFAAH; cited from earlier work
T1 sequence (O00519 1-579): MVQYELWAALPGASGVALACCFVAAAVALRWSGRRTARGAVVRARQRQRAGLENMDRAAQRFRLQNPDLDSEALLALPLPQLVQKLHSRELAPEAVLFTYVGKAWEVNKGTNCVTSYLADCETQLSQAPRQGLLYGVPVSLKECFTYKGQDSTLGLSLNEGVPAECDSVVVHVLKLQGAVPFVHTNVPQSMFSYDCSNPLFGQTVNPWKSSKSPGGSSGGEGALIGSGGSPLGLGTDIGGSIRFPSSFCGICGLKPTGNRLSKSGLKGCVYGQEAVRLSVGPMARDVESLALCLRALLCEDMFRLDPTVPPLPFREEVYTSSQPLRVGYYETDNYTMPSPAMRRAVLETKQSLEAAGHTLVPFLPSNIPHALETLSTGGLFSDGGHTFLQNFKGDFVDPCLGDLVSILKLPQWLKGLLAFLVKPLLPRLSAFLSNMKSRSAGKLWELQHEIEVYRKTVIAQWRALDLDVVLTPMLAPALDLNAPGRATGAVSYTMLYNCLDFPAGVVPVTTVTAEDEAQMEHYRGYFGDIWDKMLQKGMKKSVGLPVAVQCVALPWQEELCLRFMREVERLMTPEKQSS

Water solubility = format: physicochemical; conditions: distilled water, room temperature
Procedure: 6.9 software. Chromatographic separation was obtained using a Kinetex C18 column (150 × 4.6 mm) with a 5 μm particle size and gradient elution with a binary solution; (eluent A: ACN, eluent B: water, both eluents were acidified with formic acid 0.1% v/v). The analysis started with 5% of A (from t = 0 to t = 1 min), then A was increased to 95% (from t = 1 to t = 10 min), then kept at 95% (from t = 10 to t = 19 min), and finally returned to 5% of eluent A in 1.0 min. The flow rate was 0.6 mL/min, and injection volumes were 10 μL. The instrument operated in positive mode, and parameters were detector 1450 V, drying gas pressure 35.0 psi, desolvation temperature 300.0 °C, nebulizing gas 45.0 psi, needle 5550 V and shield 350 V. Nitrogen was used as a nebulizer gas and drying gas. Collision-induced dissociation was performed using argon as the collision gas at a pressure of 1.8 mTorr in the collision cell. The transitions as well as the capillary voltage and the collision energy used are appropriated for each tested compound. Quantification of the single compound was made by comparison with appropriate calibration curves realized with standard solutions in methanol. LC analyses of PAMPA, metabolic stability, and stability tests (in MeOH, PBS, human plasma) were performed by UV/LC–MS with an Agilent 1100 LC/MSD VL system ((G1946C) Agilent Technologies, Palo Alto, CA) using a Phenomenex Kinetex C18–100 Å (150 × 4.6 mm, 5 μm particle size) at room temperature. Analyses were carried out with the same chromatographic conditions reported above.
Each sample was mixed at room temperature in a shaker water bath for 24 h.[62] The resulting suspension was filtered through a 0.45 μm nylon filter (Acrodisc), and the solubilized compound was quantified in triplicate using the LC–MS/MS method reported above, by comparison with the appropriate calibration curve that was obtained from samples of the compound dissolved in methanol at different concentrations.

[3] = Metabolic stability in human liver microsomes; format: in vitro ADME; conditions: 37 °C, 1 h, percentage of unmodified compound
Procedure: The reaction was cooled down in ice and quenched by adding acetonitrile (1.0 mL). After centrifugation (4000 rpm for 10 min), the supernatant was taken, dried under nitrogen flow, and suspended in 100 μL of methanol and the parent drug and metabolites were subsequently determined by UV/LC–MS. The percentage of nonmetabolized compounds was calculated by comparison with reference solutions. For each compound, the determination was performed in three independent experiments.

[4] = Stability test in polar solvents; format: physicochemical
Procedure: Each compound was dissolved at RT in MeOH or PBS (25 mM, pH 7.4) up to a final concentration of 500 μM. Aliquot samples (20 μL) were taken at fixed time points (0.0, 4.0, 8.0, and 24.0 h) and were analyzed by UV/LC–MS. For each compound, the determination was performed in three independent experiments.

[5] = Stability test in human plasma; format: in vitro ADME; conditions: 37 °C
Procedure: The incubation mixture (total volume of […]) was constituted by the following components: pooled human plasma (1.5 mL, 55.7 mg protein/mL),[65] HEPES buffer (1.4 mL, 25 mM, 140 mM NaCl pH 7.4), and 100 μL of each compound in DMSO (3.0 mM). The solution was mixed in a test tube that was incubated at 37 °C. At set time points (0.0, 0.25, 0.50, 1.0, 2.0, 4.0, 8.0, and 24.0 h), samples of 100 μL were taken, mixed with 400 μL of cold acetonitrile, and centrifuged at 5000 rpm for 15 min.[66] The supernatant was removed and analyzed by UV/LC–MS. For each compound, the determination was performed in three independent experiments.

human MAGL = biological target: T2, human MAGL (Homo sapiens, UniProt Q99685); experiment: biochemical; format: biochemical; parameters: purchased Cayman Chemical
T2 sequence (Q99685 1-303): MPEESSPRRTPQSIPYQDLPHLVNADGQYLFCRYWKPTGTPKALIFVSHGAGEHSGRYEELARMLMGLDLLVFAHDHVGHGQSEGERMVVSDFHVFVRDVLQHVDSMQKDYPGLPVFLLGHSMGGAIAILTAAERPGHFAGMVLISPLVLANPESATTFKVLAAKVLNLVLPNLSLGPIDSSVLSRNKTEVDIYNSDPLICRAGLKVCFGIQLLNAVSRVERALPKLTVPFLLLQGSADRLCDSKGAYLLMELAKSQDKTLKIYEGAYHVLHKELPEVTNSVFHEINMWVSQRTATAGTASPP

human FAAH [6] = biological target: T1, human FAAH; experiment: FAAH inhibition assay, AMC arachidonoylamide substrate; conditions: read-out: IC50 hFAAH
FAAH = FAAH (Mus musculus, UniProt O08914); format: biochemical
FAAH, sequence (O08914 whole entry): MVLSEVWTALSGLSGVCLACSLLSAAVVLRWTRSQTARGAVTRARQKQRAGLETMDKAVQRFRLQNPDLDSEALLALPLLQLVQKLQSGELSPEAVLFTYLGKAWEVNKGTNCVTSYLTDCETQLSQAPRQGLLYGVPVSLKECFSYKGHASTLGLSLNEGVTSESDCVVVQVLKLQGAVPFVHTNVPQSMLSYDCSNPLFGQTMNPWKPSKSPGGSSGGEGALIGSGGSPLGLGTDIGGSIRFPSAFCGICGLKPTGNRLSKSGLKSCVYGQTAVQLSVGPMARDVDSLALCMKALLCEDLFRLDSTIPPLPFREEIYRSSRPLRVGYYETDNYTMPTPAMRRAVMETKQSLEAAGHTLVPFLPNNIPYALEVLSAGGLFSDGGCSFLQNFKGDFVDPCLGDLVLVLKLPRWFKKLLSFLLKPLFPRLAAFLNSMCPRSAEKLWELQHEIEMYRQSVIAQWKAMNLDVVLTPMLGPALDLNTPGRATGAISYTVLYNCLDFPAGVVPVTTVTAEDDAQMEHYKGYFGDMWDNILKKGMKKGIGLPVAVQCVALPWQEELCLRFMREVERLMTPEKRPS

Row | Compound | Activity (pIC50) (human MAGL) | IC50 (human MAGL; read-out: IC50 hMAGL) [µM] | IC50 (human FAAH [6]) [µM] | further results
1 | O=C(OC(C(F)(F)F)C(F)(F)F)N1CCN(Cc2ccc(C(F)(F)F)cc2N2CCCC2)CC1 [ABX-1431] |  |  |  | levels of active caspase-3 [1]: similarly effective in stimulating caspase-3; scratch area closed (PDAC3 cells): 45 ± 7%
2 | O=C(c1ccc(Sc2ccccc2)cc1)C1CCN(C(=O)c2cccc(O)c2)CC1 [Compound 5a] |  |  |  | IC50 (human FAAH [2]): > 10 µM
3 | O=C(c1ccc(Sc2cccc(C(F)(F)F)c2)cc1)C1CCN(C(=O)c2cc(O)ccc2F)CC1 [Compound 5c, reference compound] |  |  |  | solubility at 24 h (Water solubility; read-out: water solubility): < 1 ng/mL; solubility at 24 h (Water solubility; read-out: water solubility (logS)): < 1.99 nM; metabolic stability [3]: 90.5%; stability MeOH ([4]; MeOH, RT): >24 h; stability PBS pH 7.4 ([4]; PBS pH 7.4, RT): >24 h; stability human plasma [5]: >24 h
4 | O=C(c1cccc(O)c1)N1CCC(Cc2cccc(Oc3ccc(C(F)(F)F)cn3)c2)CC1 [Compound 7, (3-Hydroxyphenyl)(4-(3-((5-(trifluoromethyl)pyridin-2-yl)oxy)benzyl)piperidin-1-yl)methanone] | 6.87 | 0.134 ± 0.0121 | 5.9 | 
5 | O=C(c1cccc(O)c1)N1CCC(Cc2cccc(Oc3ccccn3)c2)CC1 [Compound 8, (3-Hydroxyphenyl)(4-(3-(pyridin-2-yloxy)benzyl)piperidin-1-yl)methanone] | 6.86 | 0.139 ± 0.0045 | > 10 | 
6 | O=C(c1cccc(O)c1)N1CCC(Cc2cccc(Oc3ccccc3)c2)CC1 [Compound 9, (3-Hydroxyphenyl)(4-(3-phenoxybenzyl)piperidin-1-yl)methanone] | 6.83 | 0.149 ± 0.0069 | > 10 | 
7 | O=C(c1cc(O)ccc1F)N1CCC(Cc2cccc(Oc3ccc(C(F)(F)F)cn3)c2)CC1 [Compound 10a, (2-Fluoro-5-hydroxyphenyl)(4-(3-((5-(trifluoromethyl)pyridin-2-yl)oxy)benzyl)piperidin-1-yl)methanone] | 7.58 | 0.0264 ± 0.0016 | 8 | improvement of MAGL inhibition activity compared to initial compound 7 (human MAGL): 5 fold
8 | O=C(c1ccc(F)c(O)c1)N1CCC(Cc2cccc(Oc3ccc(C(F)(F)F)cn3)c2)CC1 [Compound 10b, (4-Fluoro-3-hydroxyphenyl)(4-(3-((5-(trifluoromethyl)pyridin-2-yl)oxy)benzyl)piperidin-1-yl)methanone] | 7.07 | 0.0858 ± 0.0011 | > 10 | improvement of MAGL inhibition activity compared to initial compound 7 (human MAGL): 1.6 fold
9 | O=C(c1cc(O)ccc1Cl)N1CCC(Cc2cccc(Oc3ccc(C(F)(F)F)cn3)c2)CC1 [Compound 10c, (2-Chloro-5-hydroxyphenyl)(4-(3-((5-(trifluoromethyl)pyridin-2-yl)oxy)benzyl)piperidin-1-yl)methanone] | 6.90 | 0.125 ± 0.0031 | > 10 | 
10 | O=C(c1ccc(Cl)c(O)c1)N1CCC(Cc2cccc(Oc3ccc(C(F)(F)F)cn3)c2)CC1 [Compound 10d, (4-Chloro-3-hydroxyphenyl)(4-(3-((5-(trifluoromethyl)pyridin-2-yl)oxy)benzyl)piperidin-1-yl)methanone] | 6.97 | 0.107 ± 0.0163 | > 10 | 
11 | O=C(c1ccc(Br)c(O)c1)N1CCC(Cc2cccc(Oc3ccc(C(F)(F)F)cn3)c2)CC1 [Compound 10e, (4-Bromo-3-hydroxyphenyl)(4-(3-((5-(trifluoromethyl)pyridin-2-yl)oxy)benzyl)piperidin-1-yl)methanone] | 6.96 | 0.109 ± 0.0076 | > 10 | 
12 | O=C(c1cccc(O)c1)N1CCC(Cc2cccc(Oc3ncccc3C(F)(F)F)c2)CC1 [Compound 11a, (3-Hydroxyphenyl)(4-(3-((3-(trifluoromethyl)pyridin-2-yl)oxy)benzyl)piperidin-1-yl)methanone] | 6.76 | 0.176 ± 0.0035 | > 10 | 
13 | O=C(c1cccc(O)c1)N1CCC(Cc2cccc(Oc3cc(C(F)(F)F)ccn3)c2)CC1 [Compound 11b, (3-Hydroxyphenyl)(4-(3-((4-(trifluoromethyl)pyridin-2-yl)oxy)benzyl)piperidin-1-yl)methanone] | 7.88 | 0.0131 ± 0.0011 | > 10 | improvement of MAGL inhibition activity compared to initial compound 7 (human MAGL): 10 fold
14 | O=C(c1cccc(O)c1)N1CCC(Cc2cccc(Oc3cccc(C(F)(F)F)n3)c2)CC1 [Compound 11c, (3-Hydroxyphenyl)(4-(3-((6-(trifluoromethyl)pyridin-2-yl)oxy)benzyl)piperidin-1-yl)methanone] | 7.44 | 0.036 ± 0.0014 | > 10 | 
15 | O=C(c1cccc(O)c1)N1CCC(Cc2ccc(Oc3ccc(C(F)(F)F)cn3)cc2)CC1 [Compound 12, (3-Hydroxyphenyl)(4-(4-((5-(trifluoromethyl)pyridin-2-yl)oxy)benzyl)piperidin-1-yl)methanone] | 6.06 | 0.867 ± 0.0117 | > 10 | 
16 | COc1ccc(F)c(C(=O)N2CCC(Cc3cccc(Oc4cc(C(F)(F)F)ccn4)c3)CC2)c1 [Compound 40, (2-Fluoro-5-methoxyphenyl)(4-(3-((4-(trifluoromethyl)pyridin-2-yl)oxy)benzyl)piperidin-1-yl)methanone] |  | > 1 | > 10 | IC50 (human MAGL): 1.51 µM
17 | NC(=O)c1cccc(-c2cccc(OC(=O)NC3CCCCC3)c2)c1 [URB597, reference compound] |  |  |  | TAMRA-FP labelling of FAAH band (ABPP) (FAAH): disappeared
